Laboratory results published in patent publication US20220144817A1 (Karuna Therapeutics, Inc., priority 2019, published 2022).
Where a name gives a salt, the structure may show the parent alone.

Columns and labels:
[1] = Pharmacokinetics following single oral dose administration in male Sprague-Dawley rats; type: in vivo; details: single oral dose of the tartrate salt, 25 mg/kg, plasma, normalized to actual dosing concentration
Method: Blood samples were collected from all animals in Groups 1-3 at 0.25, 0.5, 1, 2, 4, 6, 8, 12 and 24 hours post dose, with each animal bled at all time points. […] The slopes of the elimination phase of the concentrations vs. time curve used to calculate the T1/2 were determined by log-linear regression.
PK analyses were performed and validated using Phoenix® WinNonlin® version 8.0.
Estimated elimination half-life (tr) was also similar among treatment groups (ranged between 1.5 and 2.7 hours post-dose).

[2] = molecular target: T1, muscarinic acetylcholine receptor human M2 (hM2) (Homo sapiens, UniProt P08172); assay: pERK dose response in CHO cells stably expressing hM2; type: cell-based; details: rank hM3>hM5>hM2
T1 construct: expressed in transfected cells
T1 sequence (P08172 1-466): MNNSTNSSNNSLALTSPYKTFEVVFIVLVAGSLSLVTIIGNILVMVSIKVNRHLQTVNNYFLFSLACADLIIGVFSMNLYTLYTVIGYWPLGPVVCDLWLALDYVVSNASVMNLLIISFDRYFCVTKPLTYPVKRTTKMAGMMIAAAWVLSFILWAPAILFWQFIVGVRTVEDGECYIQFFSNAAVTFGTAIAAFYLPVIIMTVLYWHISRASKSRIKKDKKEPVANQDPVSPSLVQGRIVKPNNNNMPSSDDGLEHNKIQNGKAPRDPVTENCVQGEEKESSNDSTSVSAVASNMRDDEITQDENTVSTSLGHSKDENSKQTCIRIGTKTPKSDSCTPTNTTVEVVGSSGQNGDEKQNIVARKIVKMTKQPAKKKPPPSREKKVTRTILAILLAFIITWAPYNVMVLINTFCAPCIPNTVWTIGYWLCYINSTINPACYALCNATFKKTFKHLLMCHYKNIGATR

[3] = molecular target: T2, muscarinic acetylcholine receptor human M3 (hM3) (Homo sapiens, UniProt P20309); assay: pERK dose response in CHO cells stably expressing hM3; type: cell-based; details: for EC50: CHO cells expressing hM3, 5-minute incubation, normalized to maximum FBS response, n=3, read-out: pEC50 (pERK), M3 (converted); for agonist capacity at hM3: pERK, rank hM3>hM5>hM2
T2 construct: expressed in transfected cells
T2 sequence (P20309 whole entry): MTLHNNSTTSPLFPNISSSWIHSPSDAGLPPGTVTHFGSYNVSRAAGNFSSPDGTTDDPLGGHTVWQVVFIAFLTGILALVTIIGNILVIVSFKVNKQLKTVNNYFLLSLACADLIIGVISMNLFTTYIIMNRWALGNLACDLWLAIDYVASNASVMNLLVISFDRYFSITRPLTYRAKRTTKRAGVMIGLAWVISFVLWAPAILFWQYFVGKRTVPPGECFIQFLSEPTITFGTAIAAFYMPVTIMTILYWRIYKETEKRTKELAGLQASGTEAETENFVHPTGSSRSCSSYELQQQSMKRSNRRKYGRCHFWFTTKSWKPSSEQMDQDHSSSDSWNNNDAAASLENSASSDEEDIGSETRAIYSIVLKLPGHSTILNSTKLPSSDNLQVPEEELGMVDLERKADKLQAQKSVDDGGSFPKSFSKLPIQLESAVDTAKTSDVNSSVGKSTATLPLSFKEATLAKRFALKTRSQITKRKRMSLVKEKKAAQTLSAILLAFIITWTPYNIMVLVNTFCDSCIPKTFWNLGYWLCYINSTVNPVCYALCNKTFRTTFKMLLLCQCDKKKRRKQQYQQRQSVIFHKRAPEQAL

[4] = molecular target: T3, muscarinic acetylcholine receptor human M5 (hM5) (Homo sapiens, UniProt P08912); assay: pERK dose response in CHO cells stably expressing hM5; type: cell-based; details: rank hM3>hM5>hM2
T3 construct: expressed in transfected cells
T3 sequence (P08912 1-532): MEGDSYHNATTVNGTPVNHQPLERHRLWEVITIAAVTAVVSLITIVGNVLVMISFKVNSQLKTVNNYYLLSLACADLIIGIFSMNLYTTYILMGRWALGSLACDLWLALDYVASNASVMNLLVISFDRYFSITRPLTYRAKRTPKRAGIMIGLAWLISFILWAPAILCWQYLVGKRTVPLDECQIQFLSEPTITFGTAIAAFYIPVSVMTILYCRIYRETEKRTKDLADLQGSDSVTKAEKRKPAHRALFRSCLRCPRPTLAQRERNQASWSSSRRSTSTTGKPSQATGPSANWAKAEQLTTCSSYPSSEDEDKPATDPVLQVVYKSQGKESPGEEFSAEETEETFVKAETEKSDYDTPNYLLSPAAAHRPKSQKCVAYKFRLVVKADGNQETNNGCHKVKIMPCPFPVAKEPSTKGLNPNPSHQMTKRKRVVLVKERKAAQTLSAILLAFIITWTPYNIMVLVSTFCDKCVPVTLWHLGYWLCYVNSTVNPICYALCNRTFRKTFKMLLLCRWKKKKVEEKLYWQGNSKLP
From the text: (§1) The Flp-In™ cell lines are designed for rapid generation of stable cell lines that express a protein of interest from a Flp-In™ expression vector.
(§2) Extracellular signal-related kinase (ERK1/2 or p42/44) is a kinase in the mitogen-activated protein kinase (MAPK) family. Phosphorylation of ERK (pERK) can be used as a common end point measurement for the activation of many classes of G protein coupled receptors (GPCR) and beta-arrestin linked signaling.
(§3) For the pERK assay, cells were serum starved for 5 to 6 hours. Curves were normalized to the maximum response from the fetal bovine serum (FBS) medium corresponding to a 5-minute stimulation. A 5-minute incubation with the agonists was selected for the dose response pERK assays (n=2).
(§4) Nonlinear regression curves were calculated per the three parameters method with no constraints.

[5] = molecular target: T4, muscarinic acetylcholine receptor human M4 (hM4) (Homo sapiens, UniProt P08173); details: pERK; rank hM4>hM1
T4 sequence (P08173 1-479): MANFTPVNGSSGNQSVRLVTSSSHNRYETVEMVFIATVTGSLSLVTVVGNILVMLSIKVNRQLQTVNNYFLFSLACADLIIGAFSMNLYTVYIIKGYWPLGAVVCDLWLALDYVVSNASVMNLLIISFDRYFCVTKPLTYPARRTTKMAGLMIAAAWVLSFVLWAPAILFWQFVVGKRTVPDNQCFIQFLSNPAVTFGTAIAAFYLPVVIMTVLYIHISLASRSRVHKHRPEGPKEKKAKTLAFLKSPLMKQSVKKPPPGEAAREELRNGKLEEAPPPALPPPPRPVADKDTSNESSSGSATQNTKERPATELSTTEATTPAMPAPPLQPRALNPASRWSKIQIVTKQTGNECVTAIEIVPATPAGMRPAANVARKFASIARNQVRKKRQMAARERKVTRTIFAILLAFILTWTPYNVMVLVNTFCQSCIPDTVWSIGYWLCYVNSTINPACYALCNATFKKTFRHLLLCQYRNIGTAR
From the text: as §1, §2, §3, §4

| SMILES | normalized AUC [1] [pg·h/mg] | agonist capacity at hM2 [2] | EC50 [3] [nM] | agonist capacity at hM3 [3] | agonist capacity at hM5 [4] | agonist capacity at hM4 [5] |
| --- | --- | --- | --- | --- | --- | --- |
| CCCCCCOc1nsnc1C1=CCCN(C)C1 [Xanomeline tartrate, 3-(hexyloxy)-4-(1-methyl-1,2,5,6-tetrahydropyridin-3-yl)-1,2,5-thiadiazole, reference compound] | 4210 |  |  |  |  |  |
| [2H]C([2H])([2H])C([2H])([2H])C([2H])([2H])C([2H])([2H])C([2H])([2H])C([2H])([2H])Oc1nsnc1C1=CCCN(C)C1 [Xanomeline-d13, 3-((hexyl-1,1,2,2,3,3,4,4,5,5,6,6,6-d13)oxy)-4-(1-methyl-1,2,5,6-tetrahydropyridin-3-yl)-1,2,5-thiadiazole] | 8070 | modestly potent partial agonists | 9.66 | modestly potent partial agonists | modestly potent partial agonists | efficacious partial agonist |
| [2H]C([2H])([2H])N1CCC=C(c2nsnc2OC([2H])([2H])C([2H])([2H])C([2H])([2H])C([2H])([2H])C([2H])([2H])C([2H])([2H])[2H])C1 [Xanomeline-d16, 3-((hexyl-1,1,2,2,3,3,4,4,5,5,6,6,6-d13)oxy)-4-(1-(methyl-d3)-1,2,5,6-tetrahydropyridin-3-yl)-1,2,5-thiadiazole] | 6780 | modestly potent partial agonists | 27.2 | modestly potent partial agonists | modestly potent partial agonists | efficacious partial agonist |
